Data published in the NIST ThermoML archive (doi:10.1016/j.jct.2016.02.010).

Key:
[1] = Crystal; for Normal melting temperature: DTA; for vapor or sublimation pressure: Calculated from knudsen effusion weight loss
[2] = Molar enthalpy of transition or fusion; settings: Crystal; DSC
[3] = molar heat capacity at constant pressure; settings: 101.33 kPa, Small sample (50 mg) DSC

CC(O)c1ccccc1 (configuration not stated) [1-phenylethanol]
Settings | Molar enthalpy of transition or fusion [kcal/mol] | Normal melting temperature [°C]
[1] | – | 18.6
[2] | 3.82 | –

[3], Liquid
Settings | molar heat capacity at constant pressure [J/K/mol]
297.15 K | 262.4
298.15 K | 263.1
299.15 K | 263.9
300.15 K | 264.6
301.15 K | 265.1
302.15 K | 265.8
303.15 K | 267.1
304.15 K | 267.9
305.15 K | 268.5
306.15 K | 269.4
307.15 K | 269.8
308.15 K | 271
309.15 K | 271.7
310.15 K | 272.4
311.15 K | 273
312.15 K | 273.7
313.15 K | 274.7
314.15 K | 275.1
315.15 K | 275.7
316.15 K | 276.4
317.15 K | 277.3
318.15 K | 278.2
319.15 K | 279.1
320.15 K | 279.6
321.15 K | 280.3
322.15 K | 281
323.15 K | 281.5
324.15 K | 282.2
325.15 K | 283
326.15 K | 283.9
327.15 K | 284.4
328.15 K | 284.8
329.15 K | 285.4
330.15 K | 286
331.15 K | 286.7
332.15 K | 287.3
333.15 K | 288.1
334.15 K | 288.9
335.15 K | 289.6
336.15 K | 290.2
337.15 K | 290.6
338.15 K | 291.2
339.15 K | 292
340.15 K | 292.5
341.15 K | 293
342.15 K | 293.6
343.15 K | 294.2
344.15 K | 295.2
345.15 K | 295.7
346.15 K | 296.3
347.15 K | 296.9
348.15 K | 297.5
349.15 K | 298.1
350.15 K | 298.3
351.15 K | 298.8
352.15 K | 299.2
353.15 K | 300.7
354.15 K | 300.8
355.15 K | 301.7
356.15 K | 302.8
357.15 K | 303.4
358.15 K | 303.8
359.15 K | 303.9
360.15 K | 304.5
361.15 K | 305.3
362.15 K | 305.7
363.15 K | 306.1
364.15 K | 307
365.15 K | 307.7
366.15 K | 308.4
367.15 K | 308.6
368.15 K | 308.9
369.15 K | 309.5
370.15 K | 310.3
371.15 K | 311.1
372.15 K | 311.6
373.15 K | 311.8

OC(c1ccccc1)c1ccccc1 [diphenylmethanol]
Settings | mass density [kg/m3]
[1], 298 K, 101.33 kPa, Pycnometric method | 1210

[1]
Settings | vapor or sublimation pressure [kPa]
301.97 K | 0.000128
304.52 K | 0.00018
305.16 K | 0.000198
308.1 K | 0.00028
311.41 K | 0.000446
314.06 K | 0.00061
317.02 K | 0.00091

Settings | Molar enthalpy of transition or fusion [kcal/mol] | Normal melting temperature [°C]
[1] | – | 66.2
[2] | 5.66 | –

[3], Crystal
Settings | molar heat capacity at constant pressure [J/K/mol]
259.15 K | 202.8
260.15 K | 203.3
261.15 K | 203.9
262.15 K | 204.6
263.15 K | 205.2
264.15 K | 206.1
265.15 K | 206.8
266.15 K | 207.6
267.15 K | 208.5
268.15 K | 209.5
269.15 K | 210.3
270.15 K | 211.1
271.15 K | 211.7
272.15 K | 212.5
273.15 K | 213.8
274.15 K | 214.1
275.15 K | 215.2
276.15 K | 215.9
277.15 K | 216.9
278.15 K | 216.8
279.15 K | 217.6
280.15 K | 218.5
281.15 K | 219.4
282.15 K | 220.2
283.15 K | 221
284.15 K | 221.8
285.15 K | 222.8
286.15 K | 223.3
287.15 K | 224.3
288.15 K | 225
289.15 K | 225.8
290.15 K | 226.5
291.15 K | 227.4
292.15 K | 228.2
293.15 K | 229.1
294.15 K | 229.9
295.15 K | 230.7
296.15 K | 231.9
297.15 K | 232
298.15 K | 233
299.15 K | 233.7
300.15 K | 234.5
301.15 K | 235.4
302.15 K | 236.2
303.15 K | 237
304.15 K | 237.8
305.15 K | 238.7
306.15 K | 239.6
307.15 K | 240.7
308.15 K | 241.8
309.15 K | 242.5
310.15 K | 243.3
311.15 K | 244.2
312.15 K | 245.2
313.15 K | 246
314.15 K | 247
315.15 K | 247.8
316.15 K | 248.8
317.15 K | 249.8
318.15 K | 250.7
319.15 K | 251.7
320.15 K | 252.5
321.15 K | 253.5
322.15 K | 254.4
323.15 K | 255.3
324.15 K | 256.4
325.15 K | 257.4
326.15 K | 258.5
327.15 K | 259.5
328.15 K | 260.7
329.15 K | 261.8
330.15 K | 263.1
331.15 K | 265.1
332.15 K | 267

OC(c1ccccc1)(c1ccccc1)c1ccccc1 [triphenylmethanol]
[1]
Settings | vapor or sublimation pressure [kPa]
342.25 K | 3.35e-06
344.44 K | 4.39e-06
347.56 K | 6.8e-06
351.64 K | 1.11e-05
353.37 K | 1.42e-05
356.81 K | 1.93e-05
358.08 K | 2.17e-05

Settings | Molar enthalpy of transition or fusion [kcal/mol] | Normal melting temperature [°C]
[1] | – | 162.1
[2] | 6.52 | –

[3], Crystal
Settings | molar heat capacity at constant pressure [J/K/mol]
259.15 K | 283
260.15 K | 283.6
261.15 K | 284.9
262.15 K | 285.6
263.15 K | 286.4
264.15 K | 288.3
265.15 K | 289.5
266.15 K | 290.4
267.15 K | 291.2
268.15 K | 290.8
269.15 K | 292.3
270.15 K | 293.4
271.15 K | 294.3
272.15 K | 295.3
273.15 K | 296.5
274.15 K | 297.4
275.15 K | 297.3
276.15 K | 298.6
277.15 K | 299.8
278.15 K | 301.2
279.15 K | 302.1
280.15 K | 302.8
281.15 K | 303.4
282.15 K | 304.7
283.15 K | 306
284.15 K | 305.9
285.15 K | 307
286.15 K | 307.4
287.15 K | 308.9
288.15 K | 309.3
289.15 K | 310.1
290.15 K | 310.6
291.15 K | 311.8
292.15 K | 312.5
293.15 K | 312.9
294.15 K | 313.5
295.15 K | 314.7
296.15 K | 315.1
297.15 K | 316.1
298.15 K | 316.4
299.15 K | 316.9
300.15 K | 319.7
301.15 K | 320.5
302.15 K | 321.2
303.15 K | 322.1
304.15 K | 323
305.15 K | 324.7
306.15 K | 325.1
307.15 K | 326.1
308.15 K | 327.2
309.15 K | 328.5
310.15 K | 329.3
311.15 K | 330
312.15 K | 331.2
313.15 K | 331.9
314.15 K | 332.7
315.15 K | 333.4
316.15 K | 334.4
317.15 K | 335.9
318.15 K | 336.8
319.15 K | 337.6
320.15 K | 338.3
321.15 K | 339.8
322.15 K | 340.7
323.15 K | 343.5
324.15 K | 344.4
325.15 K | 345.5
326.15 K | 346.3
327.15 K | 347.4
328.15 K | 348.5
329.15 K | 349.7
330.15 K | 350.6
331.15 K | 351.4
332.15 K | 352.2
333.15 K | 353.2
334.15 K | 354.1
335.15 K | 355
336.15 K | 356.1
337.15 K | 357.1
338.15 K | 358.3
339.15 K | 359.3
340.15 K | 359.9
341.15 K | 360.8
342.15 K | 362
343.15 K | 363.1
344.15 K | 363.9
345.15 K | 364.6
346.15 K | 365.7
347.15 K | 366.7
348.15 K | 367.5
349.15 K | 368.3
350.15 K | 369.4
351.15 K | 370.6
352.15 K | 371.3
353.15 K | 374.6
354.15 K | 375.6
355.15 K | 376.7
356.15 K | 378.1
357.15 K | 379
358.15 K | 379.6
359.15 K | 380.8
360.15 K | 381.6
361.15 K | 382.3
362.15 K | 383
363.15 K | 383.8
364.15 K | 384.8
365.15 K | 386.1
366.15 K | 387.2
367.15 K | 387.8
368.15 K | 389.1
369.15 K | 391
370.15 K | 393.2
371.15 K | 395.8
372.15 K | 396.3
373.15 K | 397.3
